Here are results for 25 molecules from patent US8969565B2, “Imidazo[1,2-b]pyridazine-based compounds, compositions comprising them, and methods of their use” (Lexicon Pharmaceuticals, Inc., priority 2012, dated 2015).

A word on the IC50: it is the concentration needed to halve the response being measured.

The target of assay [1] is T1, AAK1 (Homo sapiens, UniProt Q2M2I8).
T1 construct: HA; expressed in transfected cells; host or cells: HEK293F
Put plainly: HEK281 cell-based assay (phospho-mu2 Western blot in transfected HEK293F cells). The settings on record: 3 hours incubation, read-out: CBA IC50. The essentials: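 HEK293F cells co-transfected with full-length human AAK1/HA and Flag/AP2M1 were treated next day with 5 compound concentrations (3-fold dilutions) in DMEM+0.5% FBS for 3 hours at 37° C. Lysates were Western blotted for phospho-mu2, with total mu2 detected by anti-Flag.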
On the technique in general: In western blotting, separated proteins are transferred to a membrane and probed.

Assay [2] addresses T1, AAK1. Description: P81 filter plate assay. Format: biochemical. The settings on record: full-length human AAK1, Mu2 substrate.

T1 sequence (Q2M2I8 1-863 isoform Q2M2I8-2): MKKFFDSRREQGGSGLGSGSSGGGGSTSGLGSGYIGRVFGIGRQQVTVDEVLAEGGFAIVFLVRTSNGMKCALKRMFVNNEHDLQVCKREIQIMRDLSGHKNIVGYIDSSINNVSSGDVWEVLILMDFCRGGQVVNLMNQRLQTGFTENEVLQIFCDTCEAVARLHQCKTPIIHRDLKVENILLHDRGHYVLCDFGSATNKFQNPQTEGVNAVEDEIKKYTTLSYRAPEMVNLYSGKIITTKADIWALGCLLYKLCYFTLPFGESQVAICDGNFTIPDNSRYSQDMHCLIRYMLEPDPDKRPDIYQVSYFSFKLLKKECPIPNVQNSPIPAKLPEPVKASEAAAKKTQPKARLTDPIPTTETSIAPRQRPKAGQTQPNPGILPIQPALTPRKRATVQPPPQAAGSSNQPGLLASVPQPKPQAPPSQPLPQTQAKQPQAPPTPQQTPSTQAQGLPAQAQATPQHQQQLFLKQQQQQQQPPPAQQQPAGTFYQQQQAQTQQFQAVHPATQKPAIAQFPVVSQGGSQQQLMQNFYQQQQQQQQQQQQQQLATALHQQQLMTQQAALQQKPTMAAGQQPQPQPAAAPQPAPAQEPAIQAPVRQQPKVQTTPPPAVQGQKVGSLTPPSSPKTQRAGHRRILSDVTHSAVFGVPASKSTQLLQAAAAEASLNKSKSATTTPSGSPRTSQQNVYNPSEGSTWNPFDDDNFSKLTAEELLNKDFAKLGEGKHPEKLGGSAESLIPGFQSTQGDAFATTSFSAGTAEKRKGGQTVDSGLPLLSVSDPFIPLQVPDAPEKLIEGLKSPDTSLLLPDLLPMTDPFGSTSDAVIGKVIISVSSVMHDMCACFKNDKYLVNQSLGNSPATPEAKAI

As for `COc1ccccc1-c1cnc2ccc(N3CC[C@H](N(C)C(=O)OC(C)(C)C)C3)nn12` [(S)-tert-butyl (1-(3-(2-methoxyphenyl)imidazo[1,2-b]pyridazin-6-yl)pyrrolidin-3-yl)(methyl)carbamate], the IC50 at AAK1 [1] is ≤ 100 nM; on AAK1 [2] it was ≤ 10 nM.

With `CN(C(=O)OC(C)(C)C)[C@H]1CCN(c2ccc3ncc(-c4ccncc4)n3n2)C1` [(S)-tert-butyl methyl(1-(3-(pyridin-4-yl)imidazo[1,2-b]pyridazin-6-yl)pyrrolidin-3-yl)carbamate], the IC50 at AAK1 [1] was ≤ 1000 nM; against AAK1 [2], ≤ 10 nM.

For the molecule `C=COC(=O)N1CCC[C@H]1CNc1ccc2ncc(-c3ccccc3OC)n2n1` [(S)-vinyl 2-(((3-(2-methoxyphenyl)imidazo[1,2-b]pyridazin-6-yl)amino)methyl)pyrrolidine-1-carboxylate], the IC50 on AAK1 [1] is ≤ 100 nM; against AAK1 [2] it was ≤ 10 nM.

With `COc1ccccc1-c1cnc2ccc(N3CC[C@H](N(C)C(=O)N4CCCC4)C3)nn12` [(S)—N-(1-(3-(2-methoxyphenyl)imidazo[1,2-b]pyridazin-6-yl)pyrrolidin-3-yl)-N-methylpyrrolidine-1-carboxamide], the results for the IC50 at AAK1 [1] and against AAK1 [2] were ≤ 100 nM and ≤ 10 nM, respectively.

For the molecule `COc1ncccc1-c1cnc2ccc(N3CC[C@H](N(C)C(=O)N4CCCC4)C3)nn12` [(S)—N-(1-(3-(2-methoxypyridin-3-yl)imidazo[1,2-b]pyridazin-6-yl)pyrrolidin-3-yl)-N-methylpyrrolidine-1-carboxamide], the half-maximal inhibitory concentration (IC50) at AAK1 [1] was ≤ 100 nM; against AAK1 [2], ≤ 10 nM.

On to `CN(C)C(=O)c1cccc(-c2cnc3ccc(N4CCN(C(=O)N5CCCC5)CC4)nn23)c1` [N,N-dimethyl-3-(6-(4-(pyrrolidine-1-carbonyl)piperazin-1-yl)imidazo[1,2-b]pyridazin-3-yl)benzamide], for which the IC50 at AAK1 [1] is ≤ 100 nM; on AAK1 [2] it was ≤ 10 nM.

As to `c1cc(-c2cnc3ccc(NCCOC4CCCC4)nn23)n[nH]1` [N-(2-(cyclopentyloxy)ethyl)-3-(1H-pyrazol-3-yl)imidazo[1,2-b]pyridazin-6-amine], the IC50 is ≤ 1000 nM on AAK1 [1] and ≤ 100 nM on AAK1 [2].

As for `Fc1ncccc1-c1cnc2ccc(NCCOC3CCCC3)nn12` [N-(2-(cyclopentyloxy)ethyl)-3-(2-fluoropyridin-3-yl)imidazo[1,2-b]pyridazin-6-amine], the values for the IC50 on AAK1 [1] and at AAK1 [2] were ≤ 1000 nM and ≤ 10 nM, respectively.

For `COc1cncc(-c2cnc3ccc(NCCOC4CCCC4)nn23)c1` [N-(2-(cyclopentyloxy)ethyl)-3-(5-methoxypyridin-3-yl)imidazo[1,2-b]pyridazin-6-amine], the IC50 at AAK1 [1] was ≤ 100 nM; on AAK1 [2] it was ≤ 10 nM.

With `c1ccc(-c2cnc3ccc(NCCOC4CCCC4)nn23)nc1` [N-(2-(cyclopentyloxy)ethyl)-3-(pyridin-2-yl)imidazo[1,2-b]pyridazin-6-amine], the IC50 on AAK1 [1] is ≤ 100 nM; on AAK1 [2], ≤ 10 nM.

For the molecule `CC(=O)Nc1cccc(-c2cnc3ccc(NCCOC4CCCC4)nn23)c1` [N-(3-(6-((2-(cyclopentyloxy)ethyl)amino)imidazo[1,2-b]pyridazin-3-yl)phenyl)acetamide], the IC50 on AAK1 [1] and against AAK1 [2] was ≤ 100 nM in each case.

Regarding `CC(C)(C)NC(=O)N1CCN(c2ccc3ncc(-c4ccccc4)n3n2)CC1` [N-(tert-Butyl)-4-(3-phenylimidazo[1,2-b]pyridazin-6-yl)piperazine-1-carboxamide], the IC50 on AAK1 [1] was ≤ 100 nM; against AAK1 [2] it was ≤ 10 nM.

With `COc1ccccc1-c1cnc2ccc(N3CCN(C(=O)N(C)C(C)C)CC3)nn12` [N-isopropyl-4-(3-(2-methoxyphenyl)imidazo[1,2-b]pyridazin-6-yl)-N-methylpiperazine-1-carboxamide], the IC50 on AAK1 [1] was ≤ 100 nM; on AAK1 [2], ≤ 10 nM.

On to `COc1ccccc1-c1cnc2ccc(N3CCN(C(=O)NC(C)C)CC3)nn12` [N-isopropyl-4-(3-(2-methoxyphenyl)imidazo[1,2-b]pyridazin-6-yl)piperazine-1-carboxamide], for which the IC50 was ≤ 1000 nM at AAK1 [1] and ≤ 10 nM at AAK1 [2].

Consider `CC(C)SC(=O)N1CCN(c2ccc3ncc(-c4ccccc4)n3n2)CC1` [S-Isopropyl 4-(3-phenylimidazo[1,2-b]pyridazin-6-yl)piperazine-1-carbothioate], for which the IC50 is ≤ 1000 nM on AAK1 [1] and ≤ 10 nM at AAK1 [2].

As to `O=C(N1CCCC1)N1CCN(c2ccc3ncc(-c4ccccn4)n3n2)CC1` [[4-(3-Pyridin-2-yl-imidazo[1,2-b]pyridazin-6-yl)-piperazin-1-yl]-pyrrolidin-1-yl-methanone], the IC50 on AAK1 [1] is ≤ 100 nM; against AAK1 [2], ≤ 10 nM.

Turning to `CN(C(=O)OC(C)(C)C)[C@H]1CCN(c2ccc3ncc(Br)n3n2)C1` [[(S)-1-(3-Bromo-imidazo[1,2-b]pyridazin-6-yl)-pyrrolidin-3-yl]-methyl-carbamic acid tert-butyl ester], the IC50 on AAK1 [1] was ≤ 1000 nM; against AAK1 [2], ≤ 10 nM.

As to `CCOC(=O)N1CCN(c2ccc3ncc(-c4ccccc4)n3n2)CC1` [ethyl 4-(3-phenylimidazo[1,2-b]pyridazin-6-yl)piperazine-1-carboxylate], the half-inhibitory concentration (IC50) was ≤ 100 nM on AAK1 [1] and ≤ 10 nM on AAK1 [2].

On to `CC(C)OC(=O)N1CCN(c2ccc3ncc(-c4cccc5c4OC(F)(F)O5)n3n2)CC1` [isopropyl 4-(3-(2,2-difluorobenzo[d][1,3]dioxol-4-yl)imidazo[1,2-b]pyridazin-6-yl)piperazine-1-carboxylate], for which the IC50 on AAK1 [1] was ≤ 1000 nM; on AAK1 [2] it was ≤ 10 nM.

For the molecule `COc1cccc(-c2cnc3ccc(N4CCN(C(=O)OC(C)C)CC4)nn23)c1OC` [isopropyl 4-(3-(2,3-dimethoxyphenyl)imidazo[1,2-b]pyridazin-6-yl)piperazine-1-carboxylate], the IC50 on AAK1 [1] is ≤ 100 nM; on AAK1 [2], ≤ 10 nM.

As for `COc1ccc(OC)c(-c2cnc3ccc(N4CCN(C(=O)OC(C)C)CC4)nn23)c1` [isopropyl 4-(3-(2,5-dimethoxyphenyl)imidazo[1,2-b]pyridazin-6-yl)piperazine-1-carboxylate], the IC50 on AAK1 [1] was ≤ 100 nM; against AAK1 [2], ≤ 10 nM.

For the molecule `CC(C)OC(=O)N1CCN(c2ccc3ncc(-c4ccccc4OC(F)F)n3n2)CC1` [isopropyl 4-(3-(2-(difluoromethoxy)phenyl)imidazo[1,2-b]pyridazin-6-yl)piperazine-1-carboxylate], the IC50 was ≤ 100 nM on AAK1 [1] and ≤ 10 nM against AAK1 [2].

`CC(C)OC(=O)N1CCN(c2ccc3ncc(-c4cccnc4OC(F)F)n3n2)CC1` [isopropyl 4-(3-(2-(difluoromethoxy)pyridin-3-yl)imidazo[1,2-b]pyridazin-6-yl)piperazine-1-carboxylate]: the IC50 on AAK1 [1] is ≤ 100 nM; against AAK1 [2] it was ≤ 10 nM.

Consider `CCOc1ccccc1-c1cnc2ccc(N3CCN(C(=O)OC(C)C)CC3)nn12` [isopropyl 4-(3-(2-ethoxyphenyl)imidazo[1,2-b]pyridazin-6-yl)piperazine-1-carboxylate], for which the IC50 on AAK1 [1] is ≤ 100 nM; at AAK1 [2] it was ≤ 10 nM.

As for `CCOc1ncccc1-c1cnc2ccc(N3CCN(C(=O)OC(C)C)CC3)nn12` [isopropyl 4-(3-(2-ethoxypyridin-3-yl)imidazo[1,2-b]pyridazin-6-yl)piperazine-1-carboxylate], the IC50 on AAK1 [1] and at AAK1 [2] was ≤ 10 nM each time.
